Where only a bound is given, the exact number is not on record here.

The results in this text go back to patent US20240261418A1, “SOS1 DEGRADING AGENT AND PREPARATION METHOD THEREFOR AND APPLICATION THEREOF” (SHANGHAI LEADINGTAC PHARMACEUTICAL CO. LTD., priority 2021, published 2024).

For this test, the system named is KRAS G12V mutant human lung adenocarcinoma cells NCI-H441. Nature of the test: 3D cell proliferation inhibition assay, NCI-H441. It is filed as cell-based. The conditions noted are these: NCI-H441, 168 h, 7 days, CTG. The text has this:
Test Example 4: 3D Cell Proliferation Inhibition Assay
The inhibitory effect of the compounds on the proliferation of 3D cells was investigated on KRAS G12C mutant human non-small cell lung cancer cells NCI-H358 (ATCC or Stem Cell Bank, Chinese Academy of Sciences), KRAS G12D mutant human metastatic pancreatic adenocarcinoma cells AsPC-1 (ATCC), KRAS G12V mutant human lung adenocarcinoma cells NCI-H441 (ATCC), and KRAS G13D mutant human colorectal adenocarcinoma epithelial cells DLD-1 (ATCC). The specific procedures were as follows:
200 nL of compound solution diluted in a gradient was added to corresponding microwells of a 384-well low-adsorption microwell plate (Corning, 3657) using an Echo sonic pipetting system (Labcyte, Echo 550), so that the final concentration of the test compound in the reaction system was in a range of 20000 nM-0.008 nM. Then 40 μL of cells at a certain density were added to the corresponding microplate. In addition to test wells for the test compounds, both a DMSO control well and a medium control well were set, with the DMSO control well containing DMSO and cells and the medium well containing only medium. […] The plate was incubated at room temperature for 30 min and read on a microplate reader EnVision using the chemiluminescence program. […]

In the case of `COc1cc2nc(C)nc(N[C@H](C)c3cc(-c4c(Cl)cccc4CN(C)C)cs3)c2cc1[C@H]1CC[C@H](C(=O)N2CCN(CC3CCC4(CC3)CCN(C(=O)c3ccc(Cl)c(N5CCC(=O)NC5=O)c3)CC4)CC2)CC1` [Example 1, 1-(2-chloro-5-(9-((4-((1R,4R)-4-(4-(((R)-1-(4-(2-chloro-6-((dimethylamino)methyl)phenyl)thien-2-yl)ethyl)amino)-7-methoxy-2-methylquinazolin-6-yl)cyclohexane-1-carbonyl)piperazin-1-yl)methyl)-3-azaspiro[5.5]undecane-3-carbonyl)phenyl)dihydropyrimidine-2,4(1H,3H)-dione], the IC50 – broadly, the concentration that gives 50% inhibition – fell in the range of 0.05 to 0.1 µM.

Take `COc1cc2nc(C)nc(N[C@H](C)c3cc(-c4c(Cl)cccc4CN(C)C)cs3)c2cc1[C@H]1CC[C@H](C(=O)N2CCC(CCOCC3CCN(C(=O)c4ccc(Cl)c(N5CCC(=O)NC5=O)c4)CC3)CC2)CC1` [Example 5, 1-(2-chloro-5-(4-((2-(1-((1R,4R)-4-(4-(((R)-1-(4-(2-chloro-6-((dimethylamino)methyl)phenyl)thien-2-yl)ethyl)amino)-7-methoxy-2-methylquinazolin-6-yl)cyclohexane-1-carbonyl)piperidin-4-yl)ethoxy)methyl)piperidine-1-carbonyl)phenyl)dihydropyrimidine-2,4(1H,3H)-dione]: the IC50 is at most 0.015 µM.
